# Patent US6822146B2, “Sulfonylurea-tolerant sunflower line M7” (priority 2000, dated 2004)
# Key:
# Stellaria media = experiment: Test H weed control, field plots; format: in vivo; conditions: 36 days after treatment; g a.i./ha: tribenuron-methyl 22.5, metsulfuron-methyl 6, ethametsulfuron-methyl 16, imazapyr isopropylamine salt 15, aclonifen 1200
# Text: (§1) Field plots (2 m×5 m) were tilled to remove weed cover and then seeded in rows with the following weeds: Capsella bursa pastoris, Atriplex patula, Chenopodium album, Stellaria media, Mecurialis annua, Polygonum persicaria, Amaranthus retroflexus, Polygonum convolvulus, Polygonum aviculare, Viola arvensis, Matricaria inodora, Anagallis arvensis, Sinapis arvensis, Setaria viridis, Solanum nigrum and Echinochloa crusgalli. After 21 days from sowing, at which time the weeds had reached the 2- to 6-leaf stage, herbicide treatments were applied to the plots according to a complete randomized block design, with each herbicide treatment triply replicated. The herbicides were sprayed using standard flat fan nozzles moved perpendicular to the sown lines using water spray volumes of about 296 L/ha.
# (§2) Assessments of weed control were made by visual inspection 36 days after herbicide treatment. A visual rating system was used based on a percentage scale from 0 to 100% compared to an adjacent untreated control plot. On this scale 0 represents no visual differences relative to an untreated control and 100 represents complete control of the given weed species.
# Chenopodium album = experiment: Test H weed control, field plots; format: in vivo; conditions: 36 days after treatment; g a.i./ha: tribenuron-methyl 22.5, metsulfuron-methyl 6, ethametsulfuron-methyl 16, imazapyr isopropylamine salt 15, aclonifen 1200
# Text: as §1, §2
# [1] = test system: Orobanche cumana (Race F); experiment: Test F sequential application to control Orobanche cumana; format: in vivo
# Procedure: A greenhouse experiment was performed to identify the best sequential program compared to straight application of tribenuron-methyl or metsulfuron-methyl for control of Orobanche cumana (Race F). The dose range for optimum efficacy was also studied. Both herbicides were used as formulated compositions. […] BC4-M5M7×PHA155 is referred to below as “Hybrid 7”, and BC4-M5M12×PHA155 is referred to below as “Hybrid 12”.
# Seed coating treatment was performed as described for Test D. Post-emergence treatments were applied at the 2-4 leaf stage of sunflower (corresponding to early stage of Orobanche attachment; identified as “T1”), the 6 leaf stage of sunflower (corresponding to the mid stage of Orobanche attachment; nodules <5 mm diameter; identified as “T2”) and 8 leaf stage of sunflower (corresponding to late stage of Orobanche attachment; identified as “T3”).
# The efficacy was evaluated visually as described for Test D except that the efficacy was assessed ten days later than for Tests D and E. The later evaluation allowed observing any reduction of efficacy due to late Orobanche emergence or re-growth of treated nodules. Efficacy in controlling Orobanche attached to roots was evidenced by nodules comprising black necrotic tissues with no apparent active meristematic area. These nodules could be easily crushed between fingers.
# [2] = test system: Weeds Agronomically Important in Sunflower Crops; experiment: Test H summary; format: in vivo; conditions: tribenuron-methyl 22.5 g a.i./ha, metsulfuron-methyl 6 g a.i./ha
# Text: as §1, §2
# [3] = test system: Homozygous resistant inbred lines, BC3-M4M12 (I), BC3-M4M11 (J) and BC3-M4M7 (K); experiment: Test A summary, homozygous resistant inbred lines; conditions: in vivo
# Procedure: (§3) In a small field trial, the sunflower varieties described in Table 4 were sprayed post-emergence with a variety of sulfonylurea herbicide treatments.
# (§4) Broadcast post-emergence applications of formulated sulfonylurea herbicides were performed at the 6-leaf development stage using four randomly distributed replications. Application rates were chosen to match the usual use rates of these herbicides in the crops they are registered in Europe. All herbicides except for metsulfuron-methyl were sprayed in combination with Citowet® non-ionic ethoxylated alcohol at 0.25% volume of formulated product per volume of water applied per hectare.
# (§5) The evaluation of the maximum (i.e. peak) injury to sunflower varieties by sulfonylurea herbicides was measured by visual ratings, which are listed in Table 5. A rating of 0% phytotoxicity means no crop injury. […] A rating of 100% means the complete destruction of all plants.
# [4] = test system: heterozygous resistant hybrids (C to H); conditions: in vivo
# Procedure: as §3, §4, §5
# Amaranthus retroflexus = experiment: Test H weed control, field plots; format: in vivo; parameters: concentration or dose not given beside the values; conditions: 36 days after treatment; g a.i./ha: tribenuron-methyl 22.5, metsulfuron-methyl 6, ethametsulfuron-methyl 16, imazapyr isopropylamine salt 15, aclonifen 1200
# Text: as §1, §2
# Mercurialis annua = experiment: Test H weed control, field plots; format: in vivo; parameters: concentration or dose not given beside the values; conditions: 36 days after treatment; g a.i./ha: tribenuron-methyl 22.5, metsulfuron-methyl 6, ethametsulfuron-methyl 16, imazapyr isopropylamine salt 15, aclonifen 1200
# Text: as §1, §2
# Polygonum convolvulus = experiment: Test H weed control, field plots; format: in vivo; parameters: concentration or dose not given beside the values; conditions: 36 days after treatment; g a.i./ha: tribenuron-methyl 22.5, metsulfuron-methyl 6, ethametsulfuron-methyl 16, imazapyr isopropylamine salt 15, aclonifen 1200
# Text: as §1, §2
# Polygonum aviculare = experiment: Test H weed control, field plots; format: in vivo; parameters: concentration or dose not given beside the values; conditions: 36 days after treatment; g a.i./ha: tribenuron-methyl 22.5, metsulfuron-methyl 6, ethametsulfuron-methyl 16, imazapyr isopropylamine salt 15, aclonifen 1200
# Text: as §1, §2
# Capsella bursa pastoris = experiment: Test H weed control, field plots; format: in vivo; parameters: concentration or dose not given beside the values; conditions: 36 days after treatment; g a.i./ha: tribenuron-methyl 22.5, metsulfuron-methyl 6, ethametsulfuron-methyl 16, imazapyr isopropylamine salt 15, aclonifen 1200
# Text: as §1, §2
# Setaria viridis = experiment: Test H weed control, field plots; format: in vivo; parameters: concentration or dose not given beside the values; conditions: 36 days after treatment; g a.i./ha: tribenuron-methyl 22.5, metsulfuron-methyl 6, ethametsulfuron-methyl 16, imazapyr isopropylamine salt 15, aclonifen 1200
# Text: as §1, §2
# Echinochloa crus-galli = experiment: Test H weed control, field plots; format: in vivo; parameters: concentration or dose not given beside the values; conditions: 36 days after treatment; g a.i./ha: tribenuron-methyl 22.5, metsulfuron-methyl 6, ethametsulfuron-methyl 16, imazapyr isopropylamine salt 15, aclonifen 1200
# Text: as §1, §2
# Sinapis arvensis = experiment: Test H weed control, field plots; format: in vivo; parameters: concentration or dose not given beside the values; conditions: 36 days after treatment; g a.i./ha: tribenuron-methyl 22.5, metsulfuron-methyl 6, ethametsulfuron-methyl 16, imazapyr isopropylamine salt 15, aclonifen 1200
# Text: as §1, §2
# Solanum nigrum = experiment: Test H weed control, field plots; format: in vivo; parameters: concentration or dose not given beside the values; conditions: 36 days after treatment; g a.i./ha: tribenuron-methyl 22.5, metsulfuron-methyl 6, ethametsulfuron-methyl 16, imazapyr isopropylamine salt 15, aclonifen 1200
# Text: as §1, §2
# Matricaria inodora = experiment: Test H weed control, field plots; format: in vivo; parameters: concentration or dose not given beside the values; conditions: 36 days after treatment; g a.i./ha: tribenuron-methyl 22.5, metsulfuron-methyl 6, ethametsulfuron-methyl 16, imazapyr isopropylamine salt 15, aclonifen 1200
# Text: as §1, §2
# Polygonum persicaria = experiment: Test H weed control, field plots; format: in vivo; parameters: concentration or dose not given beside the values; conditions: 36 days after treatment; g a.i./ha: tribenuron-methyl 22.5, metsulfuron-methyl 6, ethametsulfuron-methyl 16, imazapyr isopropylamine salt 15, aclonifen 1200
# Text: as §1, §2
# Atriplex patula = experiment: Test H weed control, field plots; format: in vivo; parameters: concentration or dose not given beside the values; conditions: 36 days after treatment; g a.i./ha: tribenuron-methyl 22.5, metsulfuron-methyl 6, ethametsulfuron-methyl 16, imazapyr isopropylamine salt 15, aclonifen 1200
# Text: as §1, §2
# Viola arvensis = experiment: Test H weed control, field plots; format: in vivo; parameters: concentration or dose not given beside the values; conditions: 36 days after treatment; g a.i./ha: tribenuron-methyl 22.5, metsulfuron-methyl 6, ethametsulfuron-methyl 16, imazapyr isopropylamine salt 15, aclonifen 1200
# Text: as §1, §2
# Anagallis arvensis = experiment: Test H weed control, field plots; format: in vivo; parameters: concentration or dose not given beside the values; conditions: 36 days after treatment; g a.i./ha: tribenuron-methyl 22.5, metsulfuron-methyl 6, ethametsulfuron-methyl 16, imazapyr isopropylamine salt 15, aclonifen 1200
# Text: as §1, §2
# BC4-M5M12 × PHA155 = experiment: Test C field phytotoxicity, BC4-M5M12 × PHA155; format: in vivo, sunflower
# Text: A rating of 0% phytotoxicity means no crop injury.
# [5] = post-emergence T1 3 + T3 3 g a.i./ha
# [6] = post-emergence T1 11.25 + T3 11.25 g a.i./ha
# [7] = post-emergence T1 22.5 g a.i./ha
# [8] = post-emergence T2 11.25 g a.i./ha
# [9] = post-emergence T2 22.5 g a.i./ha
# [10] = post-emergence T3 11.25 g a.i./ha
# [11] = post-emergence T3 22.5 g a.i./ha
# [12] = seed coating 11.25 + post-emergence T2 11.25 g a.i./ha
# [13] = seed coating 11.25 + post-emergence T3 11.25 g a.i./ha
Structure (SMILES),"weed control, visual rating: Stellaria media (Stellaria media) [%]","weed control, visual rating: Chenopodium album (Chenopodium album) [%]",weed control spectrum [2],"tolerance of homozygous resistant inbred lines I, J, K [3]",tolerance of heterozygous resistant hybrids C to H [4],"weed control, visual rating: Amaranthus retroflexus (Amaranthus retroflexus) [%]","weed control, visual rating: Mercurialis annua (Mercurialis annua) [%]","weed control, visual rating: Polygonum convolvulus (Polygonum convolvulus) [%]","weed control, visual rating: Polygonum aviculare (Polygonum aviculare) [%]","weed control, visual rating: Capsella bursa pastoris (Capsella bursa pastoris) [%]","weed control, visual rating: Setaria viridis (Setaria viridis) [%]","weed control, visual rating: Echinochloa crus-galli (Echinochloa crus-galli) [%]","weed control, visual rating: Sinapis arvensis (Sinapis arvensis) [%]","weed control, visual rating: Solanum nigrum (Solanum nigrum) [%]","weed control, visual rating: Matricaria inodora (Matricaria inodora) [%]","weed control, visual rating: Polygonum persicaria (Polygonum persicaria) [%]","weed control, visual rating: Atriplex patula (Atriplex patula) [%]","weed control, visual rating: Viola arvensis (Viola arvensis) [%]","weed control, visual rating: Anagallis arvensis (Anagallis arvensis) [%]",other results
"COC(=O)c1ccccc1S(=O)(=O)NC(=O)Nc1nc(C)nc(OC)n1 [Metsulfuron-methyl, metsulfuron-methyl]",100,100,excellent broad-spectrum weed control,resistant,as tolerant as the three homozygous resistant lines,99,100,92,100,100,47,47,100,97,100,100,100,100,100,"% Control in Hybrid 7 [1, 5]: 92%; % Control in Hybrid 12 [1, 5]: 90%; % Control in Hybrid 7 ([1]; post-emergence T1 3 g a.i./ha): 65%; % Control in Hybrid 12 ([1]; post-emergence T1 3 g a.i./ha): 63%; % Control in Hybrid 7 ([1]; post-emergence T3 3 g a.i./ha): 93%; % Control in Hybrid 12 ([1]; post-emergence T3 3 g a.i./ha): 95%; control of Orobanche ([1]; single late post-emergence treatment with 3 g a.i./ha): excellent control"
"COC(=O)c1ccccc1S(=O)(=O)NC(=O)N(C)c1nc(C)nc(OC)n1 [Tribenuron-methyl, tribenuron-methyl]",100,100,excellent broad-spectrum weed control,resistant,as tolerant as the three homozygous resistant lines,93,100,93,90,100,65,65,100,100,100,100,100,100,100,"Phytotoxicity Rating After Treatment (BC4-M5M12 × PHA155; postemergence 11.25 g a.i./ha, 15 DAT): 18%; rate needed for good control of Orobanche ([1]; greenhouse test, Hybrid 7 and Hybrid 12): 22.5 g a.i./ha; % Control in Hybrid 7 [1, 6]: 85%; % Control in Hybrid 12 [1, 6]: 85%; % Control in Hybrid 7 [1, 7]: 72%; % Control in Hybrid 12 [1, 7]: 73%; % Control in Hybrid 7 [1, 8]: 77%; % Control in Hybrid 12 [1, 8]: 73%; % Control in Hybrid 7 [1, 9]: 82%; % Control in Hybrid 12 [1, 9]: 83%; % Control in Hybrid 7 [1, 10]: 78%; % Control in Hybrid 12 [1, 10]: 80%; % Control in Hybrid 7 [1, 11]: 87%; % Control in Hybrid 12 [1, 11]: 87%; % Control in Hybrid 7 [1, 12]: 77%; % Control in Hybrid 12 [1, 12]: 78%; % Control in Hybrid 7 [1, 13]: 82%; % Control in Hybrid 12 [1, 13]: 83%"
"COC(=O)c1cccc(C)c1S(=O)(=O)NC(=O)Nc1nc(OCC(F)(F)F)nc(N(C)C)n1 [Triflusulfuron-methyl, triflusulfuron-methyl]",,,,,,,,,,,,,,,,,,,,"Phytotoxicity Rating After Treatment (BC4-M5M12 × PHA155; postemergence 7.5 g a.i./ha, 7 DAT): 22%; Phytotoxicity Rating After Treatment (BC4-M5M12 × PHA155; postemergence 7.5 g a.i./ha, 15 DAT): 22%; Phytotoxicity Rating After Treatment (BC4-M5M12 × PHA155; postemergence 7.5 g a.i./ha, 30 DAT): 25%; Phytotoxicity Rating After Treatment (BC4-M5M12 × PHA155; postemergence 15 g a.i./ha, 7 DAT): 38%; Phytotoxicity Rating After Treatment (BC4-M5M12 × PHA155; postemergence 15 g a.i./ha, 15 DAT): 45%; Phytotoxicity Rating After Treatment (BC4-M5M12 × PHA155; postemergence 15 g a.i./ha, 30 DAT): 43%"
